Read-outs that look alike come from different tables or passages of the source.
Tests used:
[1] = tested on: cells without virus infection; test: Cytotoxicity in parallel to the 229E CPE assay, without virus infection, CellTiter Glo; conditions: read-out: 229E CC50; without virus infection
Description: (§1) Reagents and instruments used in this assay include luminescent cell viability assay kit CellTiter Glo (Promega) and Microplate Reader Synergy2 (BioTek).
(§2) The cytotoxicity of compounds was assessed under the same conditions, but without virus infection, in parallel. Cell viability was measured with CellTiter Glo. The antiviral activity and cytotoxicity of compounds were expressed as % Inhibition and % Viability, respectively, and calculated with formulas.

[2] = target: 229E Mpro (Human coronavirus 229E, UniProt P0C6X1); test: 229E Mpro enzymatic assay (standard methods, SARS-CoV2 Mpro assay given as exemplary); assay type: biochemical, human coronavirus (HCov) 229E
Sequence of 229E Mpro (P0C6X1 2966-3267): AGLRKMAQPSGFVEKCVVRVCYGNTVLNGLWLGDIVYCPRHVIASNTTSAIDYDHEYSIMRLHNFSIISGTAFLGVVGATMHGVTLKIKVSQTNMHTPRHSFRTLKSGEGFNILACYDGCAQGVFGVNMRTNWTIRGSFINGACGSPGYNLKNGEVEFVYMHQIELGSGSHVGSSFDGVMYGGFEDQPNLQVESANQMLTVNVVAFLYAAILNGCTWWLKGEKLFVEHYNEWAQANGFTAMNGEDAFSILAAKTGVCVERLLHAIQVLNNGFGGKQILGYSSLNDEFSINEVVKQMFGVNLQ
Method in brief: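 Run by standard methods, with the SARS-CoV-2 Mpro protocol given as the model: E. coli-expressed C-His6 protease at 25 nM and substrate at 25 μM (Km 13.5 μM). Buffer pH 7.3 with 5 mM TCEP and 0.1% BSA; % inhibition versus controls fitted to variable-slope log(inhibitor)-response for IC50.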

[3] = target: COVID-19 (nCoV-2019, SARS-CoV2) Mpro (Severe acute respiratory syndrome coronavirus 2, UniProt P0DTD1); test: COVID-19 (nCoV-2019, SARS-CoV2) Mpro enzymatic assay; assay type: biochemical; conditions: 25 nM Mpro, 25 μM substrate; read-out: COVID-19 Mpro IC50
[4] = tested on: HCoV 229E; test: HCoV 229E cytopathic effect (CPE) assay, CellTiter Glo; assay type: cell-based, human coronavirus (HCov) 229E; conditions: protection of virus-induced CPE
[5] = tested on: HCov OC43; test: HCoV OC43 cytopathic effect (CPE) assay, CellTiter Glo; assay type: cell-based, human coronavirus (HCov) OC43
[6] = Cytotoxicity in parallel to the 229E CPE assay, without virus infection, CellTiter Glo; conditions: 229E CC50, without virus infection
Description: as §1, §2

[7] = Betacoronavirus 1, OC43, read-out: OC43 IC50 (uM) MEDIAN, median

SMILES	CC50 [1]	EC50 ([2]; 229E Mpro EC50)	IC50 [3]	EC50 ([4]; unidentified human coronavirus)	IC50 [5, 7]	EC50 ([2]; read-out: 229E Mpro EC50)	EC50 [4]	IC50 ([5]; read-out: OC43 IC50 (uM) MEDIAN, median)	CC50 [6]
COc1cncc(C(C(=O)NC2CCCCC2)N(C(=O)[C@H]2C[C@@H](O)CN2C#N)c2ccc(C(C)(C)C)cc2)c1 (single isomer, unassigned) [679 Isomer 1]	> 30 µM	< 2000 nM	< 2 µM	< 2000 nM	< 2 µM				
COc1cncc(C(C(=O)NC2CCCCC2)N(C(=O)[C@H]2C[C@@H](O)CN2C#N)c2ccc(C(C)(C)C)cc2)c1 (single isomer, unassigned) [679 Isomer 2]	10 to 30 µM		10 to 30 µM			< 2000 nM	2000 to 10000 nM	2 to 10 µM	
CC(C)(C)c1ccc(N(C(=O)[C@H]2COCCN2C#N)C(C(=O)NC2CCCCC2)c2cccnc2)cc1 (single isomer, unassigned) [Compound 202 Isomer 2]			< 2 µM		< 2 µM	< 2000 nM	< 2000 nM		> 30 µM
C[C@@H]1C[C@H](C(=O)N(c2ccc(C(C)(C)C)cc2)C(C(=O)NC2CCCCC2)c2cccnc2)N(C#N)C1 (single isomer, unassigned) [Compound 232 Isomer 2]		< 2000 nM	2 to 10 µM	< 2000 nM	2 to 10 µM				10 to 30 µM
CC1(C)C[C@H](C(=O)N(c2ccc(C(C)(C)C)cc2)C(C(=O)NC2CCCCC2)c2cccnc2)N(C#N)C1 (single isomer, unassigned) [Compound 268 Isomer 2]		< 2000 nM	< 2 µM	< 2000 nM	2 to 10 µM				10 to 30 µM
CC(C)(C)c1ccc(N(C(=O)c2cnc[nH]2)C(C(=O)NC2CCCCC2)c2cccnc2)c(C#N)n1 (centres unmarked) [Compound 117]		2000 to 10000 nM	> 30 µM	2000 to 10000 nM					> 30 µM
CC(C)(C)c1ccc(N(C(=O)c2nsnc2Cl)C(C(=O)NC2CCCCC2)c2cccnc2)cc1 (centres unmarked) [Compound 123, N-(4-(tert-butyl)phenyl)-4-chloro-N-(2-(cyclohexylamino)-2-oxo-1-(pyridin-3-yl)ethyl)-1,2,5-thiadiazole-3-carboxamide]		< 2000 nM	< 2 µM	< 2000 nM					> 30 µM
CC(C)(C)c1ccc(N(C(=O)c2nccnc2C#N)C(C(=O)NC2CCCCC2)c2cccnc2)cc1 (centres unmarked) [Compound 124, N-(4-(tert-butyl)phenyl)-3-cyano-N-(2-(cyclohexylamino)-2-oxo-1-(pyridin-3-yl)ethyl)pyrazine-2-carboxamide]		10000 to 30000 nM	> 30 µM	10000 to 30000 nM					> 30 µM
CC(C)(C)c1ccc(N(C(=O)C2CN(C#N)C2)C(C(=O)NC2CCCCC2)c2cccnc2)cc1 (centres unmarked) [Compound 125, N-(4-tert-butylphenyl)-1-cyano-N-[2-(cyclohexylamino)-2-oxo-1-(3-pyridyl)ethyl]azetidine-3-carboxamide]		10000 to 30000 nM	10 to 30 µM	2000 to 10000 nM					10 to 30 µM

From patent US20220380347A1, “INHIBITORS OF CYSTEINE PROTEASES AND METHODS OF USE THEREOF” (Pardes Biosciences, Inc., priority 2020, published 2022)
